What was measured:
[1] = test system: h-TELO (DNA, G4) TTGGGTTAGGGTTAGGGATTAGGGA; experiment: fluorescence titration (ligand emission); settings: K+ 60 mM (potassium cacodylate); pH 7.4, room temperature, 2.5 µM TBP2, Hill-1 fit, apparent
[2] = test system: FAM-c-KIT2-TAMRA (DNA, G4) GGGCGGGCGCTAGGGAGGGG; experiment: FRET melting; settings: K+ 60 mM (potassium cacodylate); pH 7.4, 2 µM compound, 0.2 µM DNA
[3] = test system: c-KIT2 (DNA, G4) GGGCGGGCGCTAGGGAGGGG; experiment: fluorescence titration (ligand emission); settings: K+ 60 mM (potassium cacodylate); pH 7.4, room temperature, 2.5 µM TBP2, Hill-1 fit, apparent
[4] = test system: FAM-c-KIT1-TAMRA (DNA, G4) GGGAGGGCGCTGGGAGGAGGG; experiment: FRET melting; settings: K+ 60 mM (potassium cacodylate); pH 7.4, 2 µM compound, 0.2 µM DNA
[5] = test system: c-MYC22 (NMR) (DNA, G4) TGAGGGTGGGTAGGGTGGGTAA; experiment: 1D 1H NMR titration; settings: K+ 100 mM; 25 mM Tris-HCl, pH 7.4, 100 µM DNA, 5-7.5% d6-DMSO
[6] = test system: c-KIT1 (DNA, G4) GGGAGGGCGCTGGGAGGAGGG; experiment: fluorescence titration (ligand emission); settings: K+ 60 mM (potassium cacodylate); pH 7.4, room temperature, 2.5 µM TBP2, Hill-1 fit, apparent
[7] = test system: BCL-2 (DNA, G4) GGGCGCGGGAGGAATTGGGCGGG; experiment: fluorescence titration (ligand emission); settings: K+ 60 mM (potassium cacodylate); pH 7.4, room temperature, 2.5 µM TBP2, Hill-1 fit, apparent
[8] = test system: FAM-BCL-2-TAMRA (DNA, G4) GGGCGCGGGAGGAATTGGGCGGG; experiment: FRET melting; settings: K+ 60 mM (potassium cacodylate); pH 7.4, 2 µM compound, 0.2 µM DNA

Compound | Kd [1] | ΔTM [2] | Kd [3] | ΔTM [4] | binding [5] | Kd [6] | Kd [7] | ΔTM [8]
CN(C)CCCNC(=O)c1csc(NC(=O)c2csc(NC(=O)CCCc3cn(CCNC(=O)c4csc(NC(=O)c5csc(N)n5)n4)nn3)n2)n1 | 8.2 µM | 4.1 ± 0.2 °C | 9.2 µM | 1.3 ± 0.1 °C | yes | 9.5 µM | 10.2 µM | 3.8 ± 0.2 °C
CN(C)CCCNC(=O)c1csc(NC(=O)c2csc(NC(=O)CCCc3cn(CCNC(=O)c4csc(NC(=O)c5csc(NC(=O)OC(C)(C)C)n5)n4)nn3)n2)n1 | – | 0.5 ± 0 °C | – | 0 °C | – | – | – | 1 ± 0 °C
